Measured values reported in paper PMC9967275, “Screening the Pathogen Box to Discover and Characterize New Cruzain and TbrCatL Inhibitors” (Pathogens, 2023).

What was measured:
TbrCatL = biological target: T1, TbrCatL (Trypanosoma brucei rhodesiense, UniProt Q95PM0); assay: TbrCatL enzymatic inhibition assay (cleavage of fluorogenic substrate Z-FR-AMC); assay type: biochemical; conditions: for TbrCatL 0’ Inhibition / TbrCatL 10’ Inhibition: sheet "Screening results"
T1 construct: Conor Caffrey (University of California San Diego)
Protocol: (§1) Allison Doak and Prof. Brian Shoichet (University of California San Francisco, San Francisco, CA, USA) and Prof. Conor Caffrey (University of California San Diego, San Diego, CA, USA) generously provided recombinant cruzain and TbrCatL, respectively. In vitro activity of proteases cruzain and TbrCatL was assayed as previously described. Briefly, enzyme activity was measured by monitoring the cleavage of the fluorogenic substrate […] (Z-FR-AMC) at 25 °C. Fluorescence was monitored at 340/440 nm (excitation/emission) over 5–7 min in a Synergy2 Biotek plate reader. […] DMSO and 1 μM E-64 were employed as negative and positive controls, respectively, in all assays. Two conditions were employed for both enzymes: 10′ pre-incubation of the enzyme in the presence of the compound (10′ inc) and no pre-incubation (0′). Reported values correspond to the mean and standard error of the mean (SEM) and all analyses were performed using GraphPad Prism 6.0.
(§2) For the initial screening, compounds were assayed at 5 μM. […] IC50 curves were obtained from a non-linear fit of at least seven distinct compound concentrations, in triplicate. Reported IC50 values are the mean and SEM of two independent measurements.

cruzain = cruzain (Trypanosoma cruzi, UniProt P25779); assay: biochemical; conditions: for Cruzain 0’ Inhibition / Cruzain 10’ Inhibition: sheet "Screening results"
Protocol: as §1, §2

[1] = 0’ (no pre-incubation), sheet Screening results
[2] = 10’ (pre-incubation), sheet Screening results
[3] = 0’ (pre-incubation time), Pathogen Box screening results
[4] = 10’ (pre-incubation time), Pathogen Box screening results
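Note: at 5 µM compound concentration.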

T1 sequence (Q95PM0 entry or part of it): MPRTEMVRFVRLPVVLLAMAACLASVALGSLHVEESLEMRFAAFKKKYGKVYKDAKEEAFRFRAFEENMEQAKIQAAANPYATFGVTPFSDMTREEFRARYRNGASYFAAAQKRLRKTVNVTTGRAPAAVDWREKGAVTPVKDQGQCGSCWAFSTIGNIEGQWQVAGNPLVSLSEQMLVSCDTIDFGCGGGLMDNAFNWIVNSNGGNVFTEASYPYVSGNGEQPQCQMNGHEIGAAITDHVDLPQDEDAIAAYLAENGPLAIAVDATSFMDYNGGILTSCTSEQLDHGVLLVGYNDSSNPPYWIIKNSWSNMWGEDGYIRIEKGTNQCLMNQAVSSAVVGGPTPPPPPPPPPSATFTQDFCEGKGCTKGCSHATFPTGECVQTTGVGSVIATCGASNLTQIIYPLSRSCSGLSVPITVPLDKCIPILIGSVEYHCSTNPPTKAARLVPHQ
Chain of cruzain (P25779 123-337 limits assumed): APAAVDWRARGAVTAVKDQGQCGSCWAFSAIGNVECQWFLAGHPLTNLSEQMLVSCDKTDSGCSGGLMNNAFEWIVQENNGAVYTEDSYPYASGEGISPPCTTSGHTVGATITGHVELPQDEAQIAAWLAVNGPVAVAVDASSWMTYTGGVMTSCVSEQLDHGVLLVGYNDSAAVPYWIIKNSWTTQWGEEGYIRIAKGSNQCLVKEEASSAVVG

Row | Compound | TbrCatL Inhibition 0’ (TbrCatL; [1]) [%] | TbrCatL Inhibition 10’ (TbrCatL; [2]) [%] | Cruzain Inhibition 0’ (cruzain; [1]) [%] | Cruzain Inhibition 10’ (cruzain; [2]) [%] | TbrCatL 0’ Inhibition (TbrCatL; 0’ (pre-incubation time)) [%] | TbrCatL 10’ Inhibition (TbrCatL; 10’ (pre-incubation time)) [%] | Cruzain 0’ Inhibition (cruzain; 0’ (pre-incubation time)) [%] | Cruzain 10’ Inhibition (cruzain; 10’ (pre-incubation time)) [%] | other results
1 | CC(=O)NC[C@H]1CN(c2ccc(-c3ccc(CNCc4cn[nH]n4)cc3)c(F)c2)C(=O)O1 [MMV688327] | -5.5 | 6.4 | -3.5 | 4 | – | – | – | – | –
2 | CC(C)n1nc(-c2cc3c(Cl)cccc3[nH]2)c2c(N)ncnc21 [MMV688417] | – | – | – | – | -11 | -13 | 5.6 | -1.4 | –
3 | CCOC(=O)c1cc(-c2csc(Nc3c(C)cc(C)cc3C)n2)on1 [MMV676461] | 6 | 15 | -2.6 | 4 | – | – | – | – | –
4 | CCOC(=O)c1noc(N)c1-c1ccccc1 [MMV1236379] | – | – | – | – | – | – | – | – | TbrCatL Inhibition 0’ (TbrCatL; [3]): -9%; TbrCatL Inhibition 10’ (TbrCatL; [4]): -1.7%; Cruzain Inhibition 0’ (cruzain; [3]): -8%; Cruzain Inhibition 10’ (cruzain; [4]): 7%
5 | Cc1cc(C(=O)Nc2cnn(Cc3ccc(Cl)cc3Cl)c2)no1 [MMV009054] | -14 | -16 | -1.8 | -2 | – | – | – | – | –
6 | N=C(N)c1ccc(-c2cc(-c3ccccc3)on2)cc1 [MMV688514] | 20 | -6.6 | 14 | 13 | – | – | – | – | –
7 | COc1cccc(-c2cc3c(Nc4cccnc4)nccc3[nH]2)c1 [MMV392832] | – | – | – | – | – | – | – | – | TbrCatL Inhibition 0’ (TbrCatL; [3]): 6%; TbrCatL Inhibition 10’ (TbrCatL; [4]): -6.4%; Cruzain Inhibition 0’ (cruzain; [3]): 8.5%; Cruzain Inhibition 10’ (cruzain; [4]): -3.6%
8 | CC1CC1C(=O)NC1CCN(CC2(c3ccccc3)CCCCC2)CC1 (stereo not drawn) [MMV020120] | -2.3 | 3.8 | 1.3 | -0.5 | – | – | – | – | –
9 | O=C(C1CCN(c2nnc(-n3cccc3)s2)CC1)N1CCC(Cc2ccccc2)CC1 [MMV676478] | – | – | – | – | 2.2 | -8 | 0.9 | 2.5 | –
10 | CNC1C(OC2C(OC3C(O)C(O)C(N=C(N)N)C(O)C3N=C(N)N)OC(C)C2(O)C=O)OC(CO)C(O)C1O (stereo not drawn) [MMV688994] | 1.1 | 1.5 | -4 | -2.3 | – | – | – | – | –
11 | COc1cccc(-n2nnnc2S(=O)(=O)Cc2ccccc2)c1 [MMV676388] | 18 | 15 | 15 | 12 | – | – | – | – | –
12 | CCC(C)NC(=O)c1ccc(NC(=O)C2(c3ccccc3)CCCC2)cc1 (stereo not drawn) [MMV146306] | – | – | – | – | – | – | – | – | TbrCatL Inhibition 0’ (TbrCatL; [3]): -3.2%; TbrCatL Inhibition 10’ (TbrCatL; [4]): -6.5%; Cruzain Inhibition 0’ (cruzain; [3]): 0.6%; Cruzain Inhibition 10’ (cruzain; [4]): 1.8%
13 | Cc1ccc2oc(-c3cc(NC(=O)Cc4ccccc4)ccc3Cl)nc2c1 [MMV676509] | 11 | 12 | 21 | 5 | – | – | – | – | –
14 | Cc1cc(C)n2nc(C(=O)Nc3cc(C(F)(F)F)ccc3N3CCOCC3)nc2n1 [MMV019087] | 4.3 | 3 | 1.6 | 2.6 | – | – | – | – | –
15 | CN1CCN(c2nccc3[nH]c(-c4cccc(F)c4)cc23)CC1 [MMV393144] | – | – | – | – | -8.5 | -8 | -15 | -11 | –
16 | Cc1nc(-c2cccc(NCc3ccccc3)c2)[nH]c1C [MMV023227] | – | – | – | – | -7 | 22 | 2 | 15 | –
17 | Clc1cccc(C(c2ccc(CN3CCNCC3)cc2)n2ccnc2)c1 (stereo not drawn) [MMV663250] | – | – | – | – | -13 | -1.1 | -0.3 | 10 | –

Row | Compound | TbrCatL Inhibition 0’ (TbrCatL; [1]) [%] | TbrCatL Inhibition 10’ (TbrCatL; [2]) [%] | Cruzain Inhibition 0’ (cruzain; [1]) [%] | Cruzain Inhibition 10’ (cruzain; [2]) [%] | TbrCatL 0’ Inhibition (TbrCatL; 0’ (pre-incubation time)) [%] | TbrCatL 10’ Inhibition (TbrCatL; 10’ (pre-incubation time)) [%] | Cruzain 0’ Inhibition (cruzain; 0’ (pre-incubation time)) [%] | Cruzain 10’ Inhibition (cruzain; 10’ (pre-incubation time)) [%] | other results
18 | CCc1nc2ccc(C(=O)NCc3ccc4c(c3)OCO4)cn2c1N(C)Cc1cccs1 [MMV407539] | – | – | – | – | -10 | -3.2 | -4 | -3 | –
19 | O=C(CN1CCOCC1)Nc1ccc2ncnc(Nc3ccc(OCc4cccc(F)c4)c(Cl)c3)c2c1 [MMV688274] | – | – | – | – | 13 | 17 | 5.7 | 2.4 | –
20 | COC(=O)C1=C(C)NC(C)=C(C(=O)OC(C)C)[C@H]1c1cccc2nonc12 [MMV001493] | 1.3 | -2.4 | 26 | 12 | – | – | – | – | –
21 | NC(=O)c1cc(-c2ccsc2)ccc1OCCOc1ccccc1 [MMV687138] | – | – | – | – | 0.2 | -2.4 | 2.4 | 4 | –
22 | CC(=O)NC[C@H]1CN(c2ccc(N3CCSCC3)c(F)c2)C(=O)O1 [MMV688756] | 10 | 7 | 14 | 11 | – | – | – | – | –
23 | CCc1ccccc1-n1c(C)cn2c3c(=O)n(C(C(=O)OC)C(C)C)c(=O)n(C)c3nc12 (stereo not drawn) [MMV688550] | – | – | – | – | – | – | – | – | TbrCatL Inhibition 0’ (TbrCatL; [3]): -16%; TbrCatL Inhibition 10’ (TbrCatL; [4]): 0.4%; Cruzain Inhibition 0’ (cruzain; [3]): -4.3%; Cruzain Inhibition 10’ (cruzain; [4]): 3.2%
24 | CN(C)CCNC(=O)N1CCCN(c2ncnc3cc(-c4ccccc4)sc23)CC1 [MMV024195] | – | – | – | – | 1.1 | -1.4 | -3.2 | 1.9 | –
25 | CCC(Sc1nc2ccccc2o1)C(=O)Nc1nnc(C)s1 (stereo not drawn) [MMV611037] | – | – | – | – | 6 | 5 | 0.2 | 4 | –
26 | Cc1cc(OCC(=O)NCc2ccccc2)c2cc(Br)ccc2n1 [MMV687747] | 2 | -0.3 | 6.4 | 6 | – | – | – | – | –
27 | COc1ccc(-c2nn(C(C)C)c3ncnc(N)c23)cc1OC [MMV675993] | – | – | – | – | -7 | -5.6 | -7 | -1.8 | –
28 | Cc1cccc(C(=O)Nc2ccnc(N(C)C3CCN(CC(C)C)CC3)c2)c1 [MMV024829] | – | – | – | – | 4 | 7 | 9 | 7 | –
29 | Nc1nccc2ccc(Oc3ccncc3)cc12 [MMV026313] | – | – | – | – | – | – | – | – | TbrCatL Inhibition 0’ (TbrCatL; [3]): 0.4%; TbrCatL Inhibition 10’ (TbrCatL; [4]): 19%; Cruzain Inhibition 0’ (cruzain; [3]): -0.8%; Cruzain Inhibition 10’ (cruzain; [4]): 8%
30 | CC1(C)OB(O)c2ccc(C3=NOC(c4cc(Cl)c(F)c(Cl)c4)(C(F)(F)F)C3)cc21 (stereo not drawn) [MMV687775] | -0.5 | -8 | 13 | -4 | – | – | – | – | –
31 | Cc1cc(Nc2ccc(C(F)(F)F)cc2)n2ccnc2n1 [MMV011229] | – | – | – | – | -1 | 6 | -0.9 | 1.4 | –
32 | CNC(=O)C1Cc2ccccc2N1C(=O)Cc1ccc(F)cc1 (stereo not drawn) [MMV188296] | 14 | 13 | 10 | 10 | – | – | – | – | –
33 | CCOc1ccccc1NC(C)C(=O)Nc1cc(C(F)(F)F)ccc1N1CCOCC1 (stereo not drawn) [MMV407834] | – | – | – | – | -3 | -7 | -3.4 | 4 | –
